Measurements reported in patent US9468212B2, “Antifungal compositions” (DSM IP ASSETS B.V., priority 2013, dated 2016).
Where “and” joins values, the source holds several entries; their conditions need not be identical. Identical values can stand only once.

Columns and labels:
[1] = tested on: mould; assay: Treatment of pineapples: mould incidence on the pineapple rinds after storage (Example 11); type: in vivo; conditions: 200 ppm natamycin, 250 ppm fludioxonil or both, 28 days of storage (21 days at 7.5° C., 7 days at 18 to 20° C.)
From the text: In this experiment pineapples were selected from a packing plant located in Costa Rica. These pineapples were selected based on uniformity in color and size. Furthermore, they were free from visual mold growth or any other visual damage caused by plagues or diseases.
The surface of the pineapples was first disinfected by immersion of the fruits for one minute in a solution comprising 150 ppm sodium hypochlorite. Next, the fruits were dried and thereafter the antimicrobial compositions were applied on the fruits using a modified watering can. This shower, to simulate the wax cascade used in pineapple packing plants, covered the rind of the fruits with a thin film of wax. The crown of the pineapple was not treated. […]
After 28 days, the mould incidence on the pineapple rinds was assessed using the following method. The number of pineapples with visual mould incidence on the rind per total of 40 pineapples was counted for all compositions. Subsequently, the antifungal activity (in %) of the individual and combined active ingredients (compositions B, C and D) was determined by calculating the reduction in mould incidence observed on the pineapple rind compared to composition A. The observed antifungal activity of composition D was compared to the expected antifungal activity of composition D according to the Colby method (Colby, 1967) as described in Example 5.

[2] = tested on: Botrytis cinerea; assay: Treatment of strawberries: wounded, inoculated with Botrytis cinerea, dipped in antifungal composition (Examples 5, 6); type: in vivo; conditions: 20° C.
Description: Twelve fresh, organic strawberries were used per treatment. Each strawberry was wounded with a 0.5 mm long cut and each wound was inoculated with 10 μl of a Botrytis cinerea suspension containing 1×10^5 of spores/ml. After a 3-hour incubation period at 20° C., each strawberry was dipped individually for 1 minute in a freshly prepared aqueous antifungal composition comprising either 500 ppm natamycin (DSM Food Specialties, Delft, The Netherlands), 500 ppm fludioxonil or both. Each antifungal composition also comprised 3.2% (w/w) beeswax, 0.8% (w/w) glycerol, 0.7% (w/w) polyoxyethylene sorbitan monostearate (Tween 60), 0.1% (w/w) polyoxyethylene sorbitan monooleate (Tween 80), 0.05% (w/w) methylhydroxyethyl-cellulose (MH EC), 0.03% (w/w) anti-foaming agent, 0.02% (w/w) xanthan gum, 0.02% (w/w) citric acid, 0.01% (w/w) lactic acid and 0.01% potassium sorbate. A composition without natamycin or fludioxonil was used as control. […] The treated strawberries were incubated in a closed box in the dark at 20° C. for 19 days.
The expected antifungal activity (E in %) of the combined antifungal composition comprising both active ingredients was calculated according to the Colby equation (Colby, 1967): E=X+Y−[(X·Y)/100] wherein X and Y are the observed antifungal activities (in %) of the individual active ingredients X and Y, respectively.
The experiment was conducted as described in Example 5, except for the fact that each wounded and inoculated strawberry was dipped individually for 1 minute in a freshly prepared aqueous antifungal composition comprising either 250 ppm natamycin (DSM Food Specialties, Delft, The Netherlands), 250 ppm fludioxonil or both. During incubation, the treated strawberries were assessed on mould growth according to the two methods described in Example 5.

## N#Cc1c[nH]cc1-c1cccc2c1OC(F)(F)O2 [Fludioxonil, fludioxonil]
[1]
  Observed antifungal activity O (%): 90%
[2]; 250 ppm natamycin, 250 ppm fludioxonil or both, 6 days
  Observed antifungal activity O (%): 89%
[2]; 250 ppm natamycin, 250 ppm fludioxonil or both, 7 days
  Observed antifungal activity O (%): 81%
[2]; 250 ppm natamycin, 250 ppm fludioxonil or both, 8 days
  Observed antifungal activity O (%): 81%
[2]; 250 ppm natamycin, 250 ppm fludioxonil or both, 9 days
  Observed antifungal activity O (%): 69%
[2]; 250 ppm natamycin, 250 ppm fludioxonil or both, 10 days
  Observed antifungal activity O (%): 55%
[2]; 250 ppm natamycin, 250 ppm fludioxonil or both, 11 days
  Observed antifungal activity O (%): 44%
[2]; 250 ppm natamycin, 250 ppm fludioxonil or both, 12 days
  Observed antifungal activity O (%): 32%
[2]; 250 ppm natamycin, 250 ppm fludioxonil or both, 13 days
  Observed antifungal activity O (%): 26%
[2]; 250 ppm natamycin, 250 ppm fludioxonil or both, 14 days
  Observed antifungal activity O (%): 19%
[2]; 250 ppm natamycin, 250 ppm fludioxonil or both, 15 days
  Observed antifungal activity O (%): 11%
[2]; 250 ppm natamycin, 250 ppm fludioxonil or both, 16 days
  Observed antifungal activity O (%): 6.0%
[2]; 250 ppm natamycin, 250 ppm fludioxonil or both, 18 days
  Observed antifungal activity O (%): 1.2%
[2]; 250 ppm natamycin, 250 ppm fludioxonil or both, 19 days
  Observed antifungal activity O (%): 0%
[2]; 250 ppm natamycin, 250 ppm fludioxonil or both, Day 6-8
  Number of moulded strawberries/total number of 12 strawberries: 5 and 5/12
[2]; 250 ppm natamycin, 250 ppm fludioxonil or both, Day 9
  Number of moulded strawberries/total number of 12 strawberries: 8 and 8/12
[2]; 250 ppm natamycin, 250 ppm fludioxonil or both, Day 10
  Number of moulded strawberries/total number of 12 strawberries: 9 and 9/12
[2]; 250 ppm natamycin, 250 ppm fludioxonil or both, Day 11
  Number of moulded strawberries/total number of 12 strawberries: 10 and 10/12
[2]; 250 ppm natamycin, 250 ppm fludioxonil or both, Day 12
  Number of moulded strawberries/total number of 12 strawberries: 12 and 12/12
[2]; 250 ppm natamycin, 250 ppm fludioxonil or both, Day 13
  Number of moulded strawberries/total number of 12 strawberries: 12 and 12/12
[2]; 250 ppm natamycin, 250 ppm fludioxonil or both, Day 14
  Number of moulded strawberries/total number of 12 strawberries: 12 and 12/12
[2]; 250 ppm natamycin, 250 ppm fludioxonil or both, Day 15
  Number of moulded strawberries/total number of 12 strawberries: 12 and 12/12
[2]; 500 ppm natamycin, 500 ppm fludioxonil or both, 7 days
  Observed antifungal activity O (%): 90%
[2]; 500 ppm natamycin, 500 ppm fludioxonil or both, 8 days
  Observed antifungal activity O (%): 80%
[2]; 500 ppm natamycin, 500 ppm fludioxonil or both, 9 days
  Observed antifungal activity O (%): 67%
[2]; 500 ppm natamycin, 500 ppm fludioxonil or both, 10 days
  Observed antifungal activity O (%): 56%
[2]; 500 ppm natamycin, 500 ppm fludioxonil or both, 11 days
  Observed antifungal activity O (%): 52%
[2]; 500 ppm natamycin, 500 ppm fludioxonil or both, 12 days
  Observed antifungal activity O (%): 44%
[2]; 500 ppm natamycin, 500 ppm fludioxonil or both, 13 days
  Observed antifungal activity O (%): 33%
[2]; 500 ppm natamycin, 500 ppm fludioxonil or both, 14 days
  Observed antifungal activity O (%): 24%
[2]; 500 ppm natamycin, 500 ppm fludioxonil or both, 15 days
  Observed antifungal activity O (%): 17%
[2]; 500 ppm natamycin, 500 ppm fludioxonil or both, 16 days
  Observed antifungal activity O (%): 13%
[2]; 500 ppm natamycin, 500 ppm fludioxonil or both, 18 days
  Observed antifungal activity O (%): 4.8%
[2]; 500 ppm natamycin, 500 ppm fludioxonil or both, 19 days
  Observed antifungal activity O (%): 3.6%
[2]; 500 ppm natamycin, 500 ppm fludioxonil or both, Day 7
  Number of moulded strawberries/total number of 12 strawberries: 3 and 3/12
[2]; 500 ppm natamycin, 500 ppm fludioxonil or both, Day 8
  Number of moulded strawberries/total number of 12 strawberries: 5 and 5/12
[2]; 500 ppm natamycin, 500 ppm fludioxonil or both, Day 9
  Number of moulded strawberries/total number of 12 strawberries: 8 and 8/12
[2]; 500 ppm natamycin, 500 ppm fludioxonil or both, Day 10-11
  Number of moulded strawberries/total number of 12 strawberries: 9 and 9/12
[2]; 500 ppm natamycin, 500 ppm fludioxonil or both, Day 12
  Number of moulded strawberries/total number of 12 strawberries: 9 and 9/12
[2]; 500 ppm natamycin, 500 ppm fludioxonil or both, Day 13
  Number of moulded strawberries/total number of 12 strawberries: 11 and 11/12
[2]; 500 ppm natamycin, 500 ppm fludioxonil or both, Day 14
  Number of moulded strawberries/total number of 12 strawberries: 12 and 12/12
[2]; 500 ppm natamycin, 500 ppm fludioxonil or both, Day 15
  Number of moulded strawberries/total number of 12 strawberries: 12 and 12/12
[2]; 500 ppm natamycin, 500 ppm fludioxonil or both, Day 16-17
  Number of moulded strawberries/total number of 12 strawberries: 12 and 12/12
